# Laboratory results: ChEMBL document CHEMBL1129232, “Synthesis and anti-HIV activity of dihydroisoxazole 6-chloropurine and adenine” (Bioorg Med Chem Lett, 1996)
# How the values were obtained:
# [1] = Median effective dose required for anti HIV-1 activity in PBM cells(Human lymphocytes); assay type: functional, cell-based; details: PBMC
# CCRF-CEM = test: Compound was evaluated for cytotoxicity against CEM cells; assay type: functional, cell-based, Homo sapiens
# [2] = Compound was evaluated for cytotoxicity against human lymphocytes (PBM cells); assay type: functional, cell-based; details: PBMC
# Vero = test: Compound was evaluated for cytotoxicity against Vero cells; assay type: functional, cell-based; details: Chlorocebus sabaeus
EC50 [1],Compound,IC50 (CCRF-CEM; ccrf-cem),IC50 [2],IC50 (Vero),"IC50 (CCRF-CEM; Homo sapiens, CCRF-CEM)"
34.6 µM,OCC1=NOC(n2cnc3c(Cl)ncnc32)C1 (stereo unspecified),–,73.5 µM,> 100 µM,35.2 µM
54.8 µM,Nc1ncnc2c1ncn2C1CC(CO)=NO1 (stereo unspecified),–,> 100 µM,> 100 µM,> 100 µM

Compound,EC50 [1],IC50 (CCRF-CEM; ccrf-cem),IC50 [2],IC50 (Vero),"IC50 (CCRF-CEM; Homo sapiens, CCRF-CEM)"
Cc1cn([C@H]2C[C@H](N=[N+]=[N-])[C@@H](CO)O2)c(=O)[nH]c1=O [ZIDOVUDINE],0.004 µM,14 µM,> 100 µM,–,–
